Measurements: patent publication US7964359B2, “Compositions and methods for the enhancement of soluble amyloid beta oligomer (ADDL) uptake and clearance” (Acumen Pharmaceuticals, Inc., priority 2006, dated 2011)
One block for each compound: values may come before it.

Columns and labels:
[1] = biological target: T1, insulin receptor (Homo sapiens, UniProt P06213); assay: Effect of insulin signaling blockers on insulin-stimulated insulin receptor phosphorylation; type: cell-based
From the text: These assays are validated via the use of control compounds such as insulin signaling and receptor antagonists and insulin sensitizers.

[2] = biological target: T1, insulin receptor; assay: ADDL breakdown by cells over expressing human insulin receptor; type: cell-based; parameters: expressed in transfected cells; settings: inhibition of insulin receptor
[3] = test system: cells over-expressing insulin receptor; assay: ADDL uptake and clearance by cells over-expressing insulin receptor; type: cell-based
From the text: The amount of oligomeric Aβ peptide assemblies present in cell lysates and culture medium is presented.
Total ADDL levels were higher than other treatment conditions. […] In the presence of insulin, ADDLs were internalized and detected in the center of the intracellular compartment. In the presence of AG1024, the majority of ADDLs were retained in the extracellular compartment.

[4] = test system: cultured cortical neurons; assay: ADDL uptake in cultured cortical neurons (western blot of medium, immunoprecipitation of lysates); type: cell-based
Procedure: Primary cortical cultures were prepared from 1-day old pups and maintained in serum-free neurobasal A medium complemented with 2% B-27, […] L-glutamine and 5 μg/mL bFGF. Synthetic oligomeric Aβ peptide assemblies (100 nM) were applied to cultured cortical neurons and incubated at 37° C. for 30 minutes. […] After separation on SDS-PAGE, the precipitated oligomeric Aβ peptide assemblies were detected on western blots with 6E10 antibody. The bar graph (mean±SE) summarizes data from four independent replicated treatments.
(§1) ADDL Uptake and Clearance by Neurons Occurs Via Insulin Receptor Signaling. […] Extracellular ADDL levels were measured on western blots using a concentrated medium. […] On the other hand, the intracellular ADDLs were detected by immunoprecipitation (FIG. 2B). […] This uptake, however, was prevented by […] (FIG. 2B, lane 5, 6).

[5] = biological target: T2, insulin receptor (Rattus norvegicus, UniProt P15127); assay: Insulin receptor tyrosine phosphorylation in hippocampal neuronal cultures; type: cell-based; parameters: endogenous in cells; host or cells: rat primary hippocampal and cortical neuronal cultures; settings: for insulin-stimulated insulin receptor tyrosine phosphorylation: ADDLs with 100 nM insulin; for insulin-stimulated insulin receptor tyrosine phosphorylation / tyrosine phosphorylation of the insulin receptor: hippocampal neurons; for tyrosine phosphorylation of the insulin receptor: substance alone
Procedure: The insulin receptor was immunoprecipitated by an antibody against the β subunit of the insulin receptor. The precipitated proteins were then detected on separate western blots by an anti-phosphotyrosine antibody and an anti-insulin receptor β subunit antibody, respectively. The ratio of phosphorylated and regular receptors was calculated after densitometry scan and compared among different treatments.
(§2) The tyrosine phosphorylation extent of insulin receptor was examined by precipitating insulin receptor with anti-insulin receptor antibody followed by blotting with anti-pTyr antibody on western blots.
(§3) Upon termination of the reaction, the extracellular medium was removed and cell lysates were prepared with a lysis buffer. The tyrosine phosphorylation of insulin receptor was assessed by immunoprecipitation of insulin receptor with a specific anti-insulin receptor antibody, followed by blotting the precipitated receptor with an anti-tyrosine antibody.

[6] = biological target: T1, insulin receptor; settings: cited from earlier work
[7] = test system: Akt; assay: Akt ser473 phosphorylation in cortical neurons; type: cell-based; settings: 6 hours
From the text: (§4) Equalized total amount of protein from soluble cell lysates were separated on SDS-PAGE, and pAkt ser473 detected on western blots with a specific antibody against pAkt ser473. Identical samples transferred to a separate membrane were detected with an anti-total Akt (rAkt) antibody for internal normalization. The normalized pAkt extent from each experimental condition was converted to percent control and analyzed with one-way ANOVA, **P<0.01.
(§5) In the presence ADDLs, however, there was an increase in pAkt ser473. […] To test whether inhibition of phosphatase 2A (PP2A) causes a similar enhancement of pAkt ser473, the cortical neurons were pre-treated with okadaic acid (OA), a potent PP2A/PP1 inhibitor at a concentration (10 nM) preferentially inhibiting PP2A.

[8] = test system: hippocampal neurons; assay: MTT cell viability assay after ADDL/insulin treatment; type: cell-based
[9] = test system: MAP kinase; assay: Insulin-induced MAP kinase phosphorylation; type: cell-based; settings: ADDL treatment
From the text: Identified herein is a signaling loop in which molecular pathology of AD and type II diabetes can be interconnected.

[10] = test system: Akt; assay: Akt ser473 phosphorylation in hippocampal neurons; type: cell-based; settings: 1 hour post-ADDL/INS treatment
From the text: as §4, §5

[11] = biological target: T1, insulin receptor; assay: Ligand blotting of ADDLs to precipitated insulin receptor; type: binding; parameters: expressed in transfected cells; settings: 100 nM ADDLs; receptors from cells with and without insulin treatment
From the text: The cell lysates were subjected to co-immunoprecipitation, in which a specific anti-ADDL antibody (20C2) was used to precipitated ADDLs and proteins that complexed with ADDLs. This was followed by detection of insulin receptor from precipitated proteins on a western blot. […] To test whether the ADDL-insulin receptor interaction is direct, the human insulin receptors from insulin receptor expressing cells with and without insulin treatment were precipitated with an anti-insulin receptor antibody.

[12] = test system: IRS1; assay: IRS1 serine307 phosphorylation in hippocampal neuronal cultures; type: cell-based; settings: 150 nM ADDLs, 60 minutes
From the text: Equal amount of total proteins from soluble cell lysates from each condition was separated on SDS-PAGE and transferred to nitrocellulose membranes. The phosphorylation extent of IRS1 Ser307 was detected with an anti-IRS1 PSer307 antibody. Identical samples on a separate membrane were blotted with an anti-total amount of IRS1 (rIRS1). The immunoreactivities of pIRS1(Ser307) were normalized with those of rIRS1. Values from each experimental group were converted to percent control and analyzed with one-way ANOVA, ***p<0.0001; **p<0.01.

[13] = biological target: T2, insulin receptor; assay: Insulin receptor tyrosine phosphorylation in cortical neuronal cultures; type: cell-based; parameters: endogenous in cells; host or cells: rat primary hippocampal and cortical neuronal cultures; settings: cortical neurons
Procedure: as §2, §3

[14] = biological target: T2, insulin receptor; assay: Serine phosphorylation of insulin receptor in hippocampal neurons; type: cell-based; parameters: endogenous in cells; host or cells: rat primary hippocampal and cortical neuronal cultures; settings: 150 nM ADDLs, 60 minutes
Procedure: The cell lysates were subjected to immunoprecipitation using an anti-insulin receptor antibody. The precipitated insulin receptors were analyzed by western blot with an anti-phosphoserine antibody to detect the serine phosphorylation extent of insulin receptor (pSer-IR). The pSer-IR extent was normalized with the total amount of precipitated insulin receptor. Each condition was converted to percent control before analyzed one-way ANOVA, **p<0.01.

[15] = biological target: T2, insulin receptor; assay: Insulin receptor (IRα) immunofluorescence in mature hippocampal neurons after ADDL treatment; type: cell-based; parameters: endogenous in cells; host or cells: cultures of mature hippocampal neurons; settings: 100 nM ADDLs, 30 minutes
Procedure: ADDLs were added to cultures at 100 nM and incubated for 30 minutes to allow for complete binding. […] Insulin receptors, identified using antibodies against the outward-directed alpha sub-unit, also distributed in a punctate manner.
To investigate whether ADDLs cause IR impairment, changes in neuronal IR levels following ADDL treatment were analyzed. […] To detect neuronal surface IR, an antibody recognizing the alpha subunit of IR (IRα) localized on the extracellular membrane layer. Abundant IRα immunoreactivity was detected in cultured hippocampal neurons, which was particularly concentrated on the membrane of soma and dendrites. After treated with 100 nM ADDLs for 30 minutes, however, there was a drastic change in IRα immunostaining pattern with a substantial reduction of IRα from dendrites but an increase in the cell body. […] The increased cytosolic IRα immunoreactivity implicates internalization of the receptor. Loss of IRα occurred specifically to ADDL attacked dendrites. […] Similar to the above experiment, ADDLs were added to cultures at 100 nM and incubated for 30 minutes to allow for complete binding.
The down-regulation of IR is likely due to internalization the receptor by ADDLs.

[16] = test system: hippocampal neurons; assay: ADDL uptake in hippocampal neurons; type: cell-based
Procedure: as §1

[17] = test system: hippocampal neurons; assay: ADDL binding to hippocampal neurons after insulin pre-incubation; type: cell-based; settings: for prevention of ADDL binding to hippocampal neurons: then 100 nM ADDLs
From the text: This possibility seems unlikely, however, given the abundance of insulin receptors in cell bodies of ADDL-exposed neurons.

[18] = cells pretreated with inhibitor before ADDL and insulin

T2 sequence (P15127 27-759 limits assumed): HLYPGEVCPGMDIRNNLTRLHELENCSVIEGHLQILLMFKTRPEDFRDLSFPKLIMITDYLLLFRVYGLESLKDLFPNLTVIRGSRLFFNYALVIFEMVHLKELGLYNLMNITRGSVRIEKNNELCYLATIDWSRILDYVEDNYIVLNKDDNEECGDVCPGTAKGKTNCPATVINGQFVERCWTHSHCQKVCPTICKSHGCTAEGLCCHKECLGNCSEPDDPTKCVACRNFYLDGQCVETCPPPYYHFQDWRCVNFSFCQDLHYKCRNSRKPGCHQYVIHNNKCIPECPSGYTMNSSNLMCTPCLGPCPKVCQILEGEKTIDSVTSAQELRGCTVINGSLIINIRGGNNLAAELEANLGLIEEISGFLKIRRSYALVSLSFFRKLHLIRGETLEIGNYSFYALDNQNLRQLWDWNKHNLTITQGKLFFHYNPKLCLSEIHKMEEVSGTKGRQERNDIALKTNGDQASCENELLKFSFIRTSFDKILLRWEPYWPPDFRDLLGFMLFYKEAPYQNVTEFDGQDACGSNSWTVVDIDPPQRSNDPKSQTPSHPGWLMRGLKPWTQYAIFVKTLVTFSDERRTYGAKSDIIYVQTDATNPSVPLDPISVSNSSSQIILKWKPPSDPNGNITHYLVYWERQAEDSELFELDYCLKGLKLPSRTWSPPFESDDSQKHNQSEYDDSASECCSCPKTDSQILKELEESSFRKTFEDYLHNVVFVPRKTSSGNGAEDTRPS
T2 sequence (P15127 764-1383 limits assumed): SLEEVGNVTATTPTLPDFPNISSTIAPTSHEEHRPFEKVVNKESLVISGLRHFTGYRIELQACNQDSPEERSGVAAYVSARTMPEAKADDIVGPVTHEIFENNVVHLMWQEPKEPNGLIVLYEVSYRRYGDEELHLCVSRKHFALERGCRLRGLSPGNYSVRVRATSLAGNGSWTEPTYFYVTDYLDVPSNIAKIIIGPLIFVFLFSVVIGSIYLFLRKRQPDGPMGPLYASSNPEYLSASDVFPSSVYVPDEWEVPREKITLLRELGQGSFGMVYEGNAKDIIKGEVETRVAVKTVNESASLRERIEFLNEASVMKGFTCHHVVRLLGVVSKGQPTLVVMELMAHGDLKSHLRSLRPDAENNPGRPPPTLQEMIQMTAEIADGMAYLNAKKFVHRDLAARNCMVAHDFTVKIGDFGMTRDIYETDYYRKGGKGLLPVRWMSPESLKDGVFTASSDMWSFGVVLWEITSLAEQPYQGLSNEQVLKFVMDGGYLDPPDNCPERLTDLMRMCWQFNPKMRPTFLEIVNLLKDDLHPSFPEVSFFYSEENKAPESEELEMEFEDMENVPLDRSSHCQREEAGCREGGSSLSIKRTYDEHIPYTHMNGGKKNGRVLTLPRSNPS

Compound: CC(C)(C)c1cc(C=C(C#N)C#N)cc(Br)c1O [AG1024, tyrphostin AG1024]
- insulin-stimulated insulin receptor phosphorylation [1]: significantly inhibited
- ADDLs in the extracellular medium [2]: striking accumulation of ADDLs in the extracellular medium
- ADDL aggregates in the extracellular medium [3, 18]: markedly higher amount of ADDL aggregates in the extracellular medium
- insulin-stimulated ADDL internalization [3, 18]: prevented
- ADDLs in the extracellular medium ([4]; 100 nM synthetic ADDLs, 37° C., 30 minutes): striking aggregation of ADDLS
- insulin-induced ADDL uptake into cell lysate ([4]; inhibitor included prior to ADDL treatment): prevented

Compound: CC(=O)OCOC(=O)CN(CC(=O)OCOC(C)=O)c1ccccc1OCCOc1ccccc1N(CC(=O)OCOC(C)=O)CC(=O)OCOC(C)=O [BAPTA-AM, 1,2-bis(o-aminophenoxy)ethane-N,N,N′,N′-tetraacetic acid tetra(acetoxymethyl)ester]
- ADDL inhibition of insulin-stimulated IR tyrosine phosphorylation under chelation of intracellular Ca2+ ([5]; 100-150 nM ADDLs, neuronal depolarization and glutamate stimulation): could be rescued

Compound: CN(C)C(=N)N=C(N)N [Metformin]
- tyrosine kinase activity of the insulin receptor [6]: enhance the tyrosine kinase activity of the insulin receptor

- insulin-stimulated insulin receptor phosphorylation [1]: significantly inhibited
Compound: O.O=C([O-])c1ccccc1-c1c2cc(I)c(=O)c(I)c-2oc2c(I)c([O-])c(I)cc12.[Na+].[Na+] [erythrosin B]

Compound: C=C1[C@@H](O)[C@@H]2O[C@]3(CC[C@H](/C=C/[C@@H](C)[C@@H]4CC(C)=C[C@@]5(O[C@H](C[C@@](C)(O)C(=O)O)CC[C@H]5O)O4)O3)CC[C@H]2O[C@@H]1[C@@H](O)C[C@H](C)[C@H]1O[C@@]2(CCCCO2)CC[C@H]1C [okadaic acid]
- duration of insulin-induced increase in pAkt ser473 [7]: prolonged the insulin-increased pAkt ser473

Compound: ADDLs: neurotoxic soluble oligomeric assemblies of Aβ 1-42, prepared from synthetic Aβ 1-42 peptide
- duration of insulin-induced increase in pAkt ser473 [7]: significantly prolonged
- neuronal toxicity (MTT cell viability) ([8]; ADDLs alone, varying treatment duration): cause neuronal toxicity in a treatment duration-dependent
- insulin-induced MAP kinase phosphorylation [9]: significantly inhibited
- insulin-induced pAkt Ser473 [10]: enhancement of the insulin-induced pAkt Ser473
- binding of ADDL to insulin receptor (ligand blot) [11]: strong binding of ADDL to insulin receptor was detected only in the activated but not the control insulin receptor
- amount of the insulin receptor ([5]; ADDL treatment, hippocampal neuronal cultures): reduction in the amount of the insulin receptor
- insulin-stimulated insulin receptor tyrosine phosphorylation [5]: significantly inhibited
- insulin-stimulated insulin receptor tyrosine phosphorylation ([5]; listed as ADDL): abolished
- insulin-stimulated insulin receptor tyrosine phosphorylation ([5]; listed as soluble oligomeric Aβ peptide assemblies): significant inhibition
- tyrosine phosphorylation of the insulin receptor [5]: increase in tyrosine phosphorylation of the insulin receptor
- IRS-1 serine 307 phosphorylation [12]: increase in serine phosphorylation of IRS-1
- insulin-induced insulin receptor tyrosine phosphorylation ([13]; ADDLs 50-150 nM with 100 nM insulin): significantly inhibited
- serine phosphorylation of insulin receptor (pSer-IR) [14]: increase in serine phosphorylation of insulin receptor
- insulin receptor immunoreactivity in cell bodies vs ADDL-free cells [15]: ~3 fold
- dendritic IRα fluorescent intensity ([15]; P<0.01): significant loss of IRα immunoreactivity
- reduction of dendritic insulin receptor immunoreactivity vs ADDL-free cells ([15]; image analysis): ~70%

Compound: insulin
- cell viability (MTT) ([8]; ADDLs/insulin for 4 hours): no apparent toxic effects
- ADDL uptake into hippocampal neurons [16]: stimulated a striking ADDL uptake into hippocampal neurons in a clear dose-response manner
- aggregated ADDLs in the extracellular medium ([16]; hippocampal neurons): reduced aggregated ADDLs in the extracellular medium in a dose-response manner
- ADDL binding and its effects ([17]; insulin 1 micromolar, 30 minutes before ADDLs): blocked
- prevention of ADDL binding to hippocampal neurons ([17]; pre-incubation with 100 nM insulin): ~40%
- prevention of ADDL binding to hippocampal neurons ([17]; pre-incubation with 1 μM insulin): ~70%
- total amount of ADDLs ([3]; 100 nM ADDL with insulin, P<0.01): significantly reduced
- ADDL uptake (ADDL levels in cell lysates up, extracellular medium down) ([3]; 100 nM ADDL, 100 nM insulin): stimulated ADDL uptake
- tyrosine phosphorylation of the insulin receptor [5]: marked increases in insulin receptor tyrosine phosphorylation
- tyrosine phosphorylation of the insulin receptor ([5]; listed as Insulin): stimulated an increase in tyrosine phosphorylation
- insulin receptor tyrosine phosphorylation ([13]; 100 nM insulin): marked increases in insulin receptor tyrosine phosphorylation
- ADDL oligomers in the cell lysate fractions ([4]; 100 nM ADDLs, immunoprecipitation with 6E10): increase of ADDL oligomers
